Patent publication US12528802B2, “Heterocyclic compound” (Takeda Pharmaceutical Company Limited, priority 2019, dated 2026)

Target: T1, glucosylceramide synthase (Homo sapiens, UniProt Q16739)
T1 construct: made in house; host or cells: Expi293F cells (transient expression, pcDNA3.3-TOPO vector); microsome fraction used as enzyme source
T1 sequence (Q16739 1-394): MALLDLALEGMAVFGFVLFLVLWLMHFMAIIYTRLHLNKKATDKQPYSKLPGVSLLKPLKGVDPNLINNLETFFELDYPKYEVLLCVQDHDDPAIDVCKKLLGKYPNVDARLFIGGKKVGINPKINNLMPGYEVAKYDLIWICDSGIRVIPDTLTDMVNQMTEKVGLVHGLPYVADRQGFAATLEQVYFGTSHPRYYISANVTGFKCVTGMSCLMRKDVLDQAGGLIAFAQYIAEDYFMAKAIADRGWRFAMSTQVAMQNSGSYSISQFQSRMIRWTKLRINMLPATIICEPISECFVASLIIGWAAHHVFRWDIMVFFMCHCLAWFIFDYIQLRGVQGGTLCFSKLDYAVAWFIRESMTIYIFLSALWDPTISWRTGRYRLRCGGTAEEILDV
Assay: Glucosylceramide synthase (GCS) enzyme assay, microsome fraction, C8 glucosylceramide quantified by Rapidfire MS/MS
Type: biochemical
Details: test compound 10 μM; 1.7 μM UDP-glucose, 3 μM C8 ceramide; room temperature 60 min; read-out: GCS enzyme inhibitory rate at 10 μM (%) (% of control)
In short: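 Test compound, 10 μM final, was run against human GCS from transfected Expi293F microsome fractions, using substrate solution of 6 μM C8 ceramide (in DOPC liposomes) plus 3.4 μM UDP-glucose, pH 7.5 Tris buffer, 60 min, room temperature. Product C8 glucosylceramide measured by Rapidfire MS/MS against an internal standard, % inhibition referenced to no-enzyme and DMSO wells.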

| SMILES | inhibition at 10 µM [%] |
| --- | --- |
| COCc1cc2c(c(-c3ccccc3OCC(F)(F)F)n1)CN(c1ccc(C(C)(C)O)cc1)C2=O [Example 330, 2-[4-(2-hydroxypropan-2-yl)phenyl]-6-(methoxymethyl)-4-[2-(2,2,2-trifluoroethoxy)phenyl]-2,3-dihydro-1H-pyrrolo[3,4-c]pyridin-1-one] | 100 |
| COC(=O)c1ccc(N2CC3=C(OC[C@H](C)N=C3c3ccccc3OCC(F)(F)F)C2=O)cc1 [Example 331, methyl 4-{(3S)-3-methyl-8-oxo-5-[2-(2,2,2-trifluoroethoxy)phenyl]-2,3,6,8-tetrahydro-7H-pyrrolo [3,4-f][1,4]oxazepin-7-yl}benzoate] | 91 |
| COC(=O)c1ccc(N2CC3=C(OC[C@@H](C)N=C3c3ccccc3OCC(F)(F)F)C2=O)cc1 [Example 333, methyl 4-{(3R)-3-methyl-8-oxo-5-[2-(2,2,2-trifluoroethoxy)phenyl]-2,3,6,8-tetrahydro-7H-pyrrolo [3,4-f][1,4]oxazepin-7-yl}benzoate] | 97 |
| CC(=O)c1ccc(N2CC3=C(OC[C@H](C)N=C3c3ccccc3OCC(F)(F)F)C2=O)cc1 [Example 334, (3S)-7-(4-acetylphenyl)-3-methyl-5-[2-(2,2,2-trifluoroethoxy)phenyl]-2,3,6,7-tetrahydro-8H-pyrrolo [3,4-f][1,4]oxazepin-8-one] | 88 |
| COC(=O)c1ccc(N2CC3=C(OCCN=C3c3ccccc3OCC(F)(F)F)C2=O)cc1 [Example 335, methyl 4-{8-oxo-5-[2-(2,2,2-trifluoroethoxy)phenyl]-2,3,6,8-tetrahydro-7H-pyrrolo[3,4-f] [1,4]oxazepin-7-yl}benzoate] | 95 |
| CC(C)(O)c1ccc(N2Cc3c(cc(Br)c(=O)n3-c3ccccc3OCC(F)(F)F)C2=O)cc1 [Example 336, 3-bromo-6-[4-(2-hydroxypropan-2-yl)phenyl]-1-[2-(2,2,2-trifluoroethoxy)phenyl]-6,7-dihydro-1H-pyrrolo[3,4-b]pyridine-2,5-dione] | 98 |
| Cc1cc2c(n(-c3ccccc3OCC(F)(F)F)c1=O)CN(c1ccc(C(C)(C)O)cc1)C2=O [Example 337, 6-[4-(2-hydroxypropan-2-yl)phenyl]-3-methyl-1-[2-(2,2,2-trifluoroethoxy)phenyl]-6,7-dihydro-1H-pyrrolo[3,4-b]pyridine-2,5-dione] | 98 |
| Cc1cc2c(c(-c3ccccc3OCC(F)(F)F)n1)CN(c1ccc(C(F)(F)CO)cc1)C2=O [Example 338, 2-[4-(1,1-difluoro-2-hydroxyethyl)phenyl]-6-methyl-4-[2-(2,2,2-trifluoroethoxy)phenyl]-2,3-dihydro-1H-pyrrolo [3,4-c]pyridin-1-one] | 100 |
| CC(C)(O)C(F)(F)c1ccc(N2Cc3c(ccnc3-c3ccccc3OCC(F)F)C2=O)cc1 [Example 339, 4-[2-(2,2-difluoroethoxy)phenyl]-2-[4-(1,1-difluoro-2-hydroxy-2-methylpropyl)phenyl]-2,3-dihydro-1H-pyrrolo[3,4-c]pyridin-1-one] | 99 |
| CC(C)(O)C(F)(F)c1ccc(N2Cc3c(ccnc3-c3ccccc3OCC(F)(F)F)C2=O)cc1 [Example 340, 2-[4-(1,1-difluoro-2-hydroxy-2-methylpropyl)phenyl]-4-[2-(2,2,2-trifluoroethoxy)phenyl]-2,3-dihydro-1H-pyrrolo[3,4-c]pyridin-1-one] | 99 |
| Cc1cc2c(c(-c3ccccc3OCC(F)(F)F)n1)CN(c1ccc(C(F)(F)C(C)(C)O)cc1)C2=O [Example 342, 2-[4-(1,1-difluoro-2-hydroxy-2-methylpropyl)phenyl]-6-methyl-4-[2-(2,2,2-trifluoroethoxy)phenyl]-2,3-dihydro-1H-pyrrolo [3,4-c]pyridin-1-one] | 100 |
| CC(C)(O)c1cc2c(c(-c3ccccc3OCC(F)(F)F)n1)CN(c1ccc(OCC(F)(F)F)cc1)C2=O [Example 343, 6-(2-hydroxypropan-2-yl)-4-[2-(2,2,2-trifluoroethoxy)phenyl]-2-[4-(2,2,2-trifluoroethoxy)phenyl]-2,3-dihydro-1H-pyrrolo[3,4-c]pyridin-1-one] | 100 |
| O=C1c2ccnc(-c3ccccc3OCC(F)(F)F)c2CN1c1ccc(O)cc1 [Example 347, 2-(4-hydroxyphenyl)-4-[2-(2,2,2-trifluoroethoxy)phenyl]-2,3-dihydro-1H-pyrrolo[3,4-c]pyridin-1-one] | 76 |
| Cc1cc2c(c(-c3ccccc3OCC(F)(F)F)n1)CN(c1ccc(C3(O)CCOCC3)cc1)C2=O [Example 348, 2-[4-(4-hydroxyoxan-4-yl)phenyl]-6-methyl-4-[2-(2,2,2-trifluoroethoxy)phenyl]-2,3-dihydro-1H-pyrrolo[3,4-c] pyridin-1-one] | 100 |
| C#CCCC1(CCOc2ccc(N3Cc4c(ccnc4-c4ccccc4OCC(F)(F)F)C3=O)cc2)N=N1 [Example 349, 2-(4-{2-[3-(but-3-yn-1-yl)-3H-diaziren-3-yl]ethoxy}phenyl)-4-[2-(2,2,2-trifluoroethoxy)phenyl]-2,3-dihydro-1H-pyrrolo[3,4-c]pyridin-1-one] | 100 |
| Cn1cc2c(c(-c3ccccc3OCC(F)(F)F)c1=O)CN(c1ccc(OCC(C)(C)O)cc1)C2=O [Example 350, 2-[4-(2-hydroxy-2-methylpropoxy)phenyl]-5-methyl-7-[2-(2,2,2-trifluoroethoxy)phenyl]-1H-pyrrolo[3,4-c]pyridine-3,6(2H,5H)-dione] | 100 |
| Cc1cc2c(c(-c3ccc(F)cc3OCC(F)(F)F)n1)CN(c1ccc(C(C)(C)O)cc1)C2=O [Example 351, 4-[4-fluoro-2-(2,2,2-trifluoroethoxy)phenyl]-2-[4-(2-hydroxypropan-2-yl)phenyl]-6-methyl-2,3-dihydro-1H-pyrrolo[3,4-c]pyridin-1-one] | 100 |
| Cc1cc2c(c(-c3ccc(F)cc3OCC(F)(F)F)n1)CN(c1ccc(C3(O)CCOCC3)cc1)C2=O [Example 352, 4-[4-fluoro-2-(2,2,2-trifluoroethoxy)phenyl]-2-[4-(4-hydroxyoxan-4-yl)phenyl]-6-methyl-2,3-dihydro-1H-pyrrolo[3,4-c] pyridin-1-one] | 100 |
| Cc1cc2c(c(-c3c(F)cccc3OCC(F)(F)F)n1)CN(c1ccc(C(C)(C)O)cc1)C2=O [Example 353, 4-[2-fluoro-6-(2,2,2-trifluoroethoxy)phenyl]-2-[4-(2-hydroxypropan-2-yl)phenyl]-6-methyl-2,3-dihydro-1H-pyrrolo[3,4-c]pyridin-1-one] | 100 |
| CC(C)(O)c1cc2c(c(-c3ccccc3OCC(F)F)n1)CN(c1ccc(OCC(F)(F)F)cc1)C2=O [Example 354, 4-[2-(2,2-difluoroethoxy)phenyl]-6-(2-hydroxypropan-2-yl)-2-[4-(2,2,2-trifluoroethoxy)phenyl]-2,3-dihydro-1H-pyrrolo[3,4-c]pyridin-1-one] | 100 |
| CC(C)(O)c1cc2c(c(-c3ccccc3OCC(F)F)n1)CN(c1ccc(OC(F)F)cc1)C2=O [Example 355, 4-[2-(2,2-difluoroethoxy)phenyl]-2-[4-(difluoromethoxy)phenyl]-6-(2-hydroxypropan-2-yl)-2,3-dihydro-1H-pyrrolo[3,4-c]pyridin-1-one] | 100 |
| CC(C)(O)c1cc2c(c(-c3ccccc3OCC(F)F)n1)CN(c1ccc(F)cc1)C2=O [Example 356, 4-[2-(2,2-difluoroethoxy)phenyl]-2-(4-fluorophenyl)-6-(2-hydroxypropan-2-yl)-2,3-dihydro-1H-pyrrolo [3,4-c]pyridin-1-one] | 99 |
| CC(C)(O)c1cc2c(c(-c3ccccc3OCC(F)F)n1)CN(c1ccc(C(F)F)cc1)C2=O [Example 357, 4-[2-(2,2-difluoroethoxy)phenyl]-2-[4-(difluoromethyl)phenyl]-6-(2-hydroxypropan-2-yl)-2,3-dihydro-1H-pyrrolo[3,4-c] pyridin-1-one] | 100 |
| CC(C)(O)c1cc2c(c(-c3ccccc3OCC(F)F)n1)CN(c1ccc(C(C)(C)C#N)cc1)C2=O [Example 360, 2-(4-{4-[2-(2,2-difluoroethoxy)phenyl]-6-(2-hydroxypropan-2-yl)-1-oxo-1,3-dihydro-2H-pyrrolo [3,4-c]pyridin-2-yl}phenyl)-2-methylpropanenitrile] | 100 |
| CC(C)(C#N)COc1ccc(N2Cc3c(cc(C(C)(C)O)nc3-c3ccccc3OCC(F)F)C2=O)cc1 [Example 362, 3-(4-{4-[2-(2,2-difluoroethoxy)phenyl]-6-(2-hydroxypropan-2-yl)-1-oxo-1,3-dihydro-2H-pyrrolo[3,4-c]pyridin-2-yl}phenoxy)-2,2-dimethylpropanenitrile] | 100 |
| CC(C)(O)c1ccc(N2Cc3c(cc(C(C)(C)O)nc3-c3ccccc3OCC(F)F)C2=O)cn1 [Example 363, 4-[2-(2,2-difluoroethoxy)phenyl]-6-(2-hydroxypropan-2-yl)-2-[6-(2-hydroxypropan-2-yl)pyridin-3-yl]-2,3-dihydro-1H-pyrrolo [3,4-c]pyridin-1-one] | 97 |
| Cc1cc2c(c(-c3ccccc3OCC(F)(F)F)n1)CN(c1ccc(OCC(C)(C)O)cc1)C2=O [Example 364, 2-[4-(2-hydroxy-2-methylpropoxy)phenyl]-6-methyl-4-[2-(2,2,2-trifluoroethoxy)phenyl]-2,3-dihydro-1H-pyrrolo [3,4-c]pyridin-1-one] | 100 |
